Results taken from ChEMBL document CHEMBL5338715, “Identification of (S)-1-(2-(2,4-difluorophenyl)-4-oxothiazolidin-3-yl)-3-(4-((7-(3-(4-ethylpiperazin-1-yl)propoxy)-6-methoxyquinolin-4-yl)oxy)-3,5-difluorophenyl)urea as a potential anti-colorectal cancer agent” (Eur J Med Chem, 2022).

system: BaF3; assay: cells; conditions: Mus musculus, BaF3, 72 h

Question: For `CCN(CC)CCCOc1cc2nccc(Oc3c(F)cc(NC(=O)NN4C(=O)CSC4c4c(F)cccc4F)cc3F)c2cc1OC` (stereo not drawn), which IC50 is on record?
Answer: 94 nM

Question: For `CCN1CCN(CCCOc2cc3nccc(Oc4ccc(NC(=O)NN5C(=O)CSC5c5c(F)cccc5F)cc4)c3cc2OC)CC1` (stereo not drawn), which IC50 is on record?
Answer: 59 nM

Question: With `CCN(CC)CCCOc1cc2nccc(Oc3ccc(C(=O)NN4C(=O)CSC4c4c(F)cccc4F)cc3)c2cc1OC` (stereo not drawn) as the compound, how does the IC50 read?
Answer: 330 nM

Question: With `CCN(CC)CCCOc1cc2nccc(Oc3ccc(CC(=O)NN4C(=O)CSC4c4c(F)cccc4F)cc3)c2cc1OC` (stereo not drawn) as the compound, how does the IC50 read?
Answer: 1300 nM

Question: Which IC50 does the source give for `CCN(CC)CCCOc1cc2nc(N)cc(Oc3ccc(NC(=O)NN4C(=O)CSC4c4c(F)cccc4F)cc3)c2cc1OC` (stereo not drawn) here?
Answer: 3300 nM

Question: For `CCN(CC)CCCOc1cc2nccc(Oc3ccc(NC(=O)NN4C(=O)CSC4c4c(F)cccc4F)cc3OC)c2cc1OC` (stereo not drawn), which IC50 is on record?
Answer: 110 nM

system: not listed separately; assay: Cytotoxicity against human FHC cells assessed as cell growth inhibition by MTT assay; format: toxicity, cell-based; conditions: not given

Question: With `CCN(CC)CCCOc1cc2nccc(Oc3c(F)cc(NC(=O)NN4C(=O)CSC4c4c(F)cccc4F)cc3F)c2cc1OC` (stereo not drawn) as the compound, how does the IC50 read?
Answer: 3800 nM

system: BaF3; assay: cells; conditions: Mus musculus, BaF3, 72 h; remark: another data set of the same source

Question: Which IC50 does the source give for `CCN(CC)CCCOc1cc2nccc(Oc3c(F)cc(NC(=O)NN4C(=O)CSC4c4c(F)cccc4F)cc3F)c2cc1OC` (stereo not drawn) here?
Answer: 220 nM

Question: For `CCN1CCN(CCCOc2cc3nccc(Oc4ccc(NC(=O)NN5C(=O)CSC5c5c(F)cccc5F)cc4)c3cc2OC)CC1` (stereo not drawn), which IC50 is on record?
Answer: 130 nM

Question: With `CCN(CC)CCCOc1cc2nccc(Oc3ccc(C(=O)NN4C(=O)CSC4c4c(F)cccc4F)cc3)c2cc1OC` (stereo not drawn) as the compound, how does the IC50 read?
Answer: 930 nM

Question: Which IC50 does the source give for `CCN(CC)CCCOc1cc2nccc(Oc3ccc(CC(=O)NN4C(=O)CSC4c4c(F)cccc4F)cc3)c2cc1OC` (stereo not drawn) here?
Answer: 2600 nM

Question: With `CCN(CC)CCCOc1cc2nc(N)cc(Oc3ccc(NC(=O)NN4C(=O)CSC4c4c(F)cccc4F)cc3)c2cc1OC` (stereo not drawn) as the compound, how does the IC50 read?
Answer: > 10000 nM

Question: Which IC50 does the source give for `CCN(CC)CCCOc1cc2nccc(Oc3ccc(NC(=O)NN4C(=O)CSC4c4c(F)cccc4F)cc3OC)c2cc1OC` (stereo not drawn) here?
Answer: 160 nM

system: HT-29; assay: cells; conditions: Homo sapiens

Question: With `CCN(CC)CCCOc1cc2nccc(Oc3c(F)cc(NC(=O)NN4C(=O)CSC4c4c(F)cccc4F)cc3F)c2cc1OC` (stereo not drawn) as the compound, how does the IC50 read?
Answer: 140 nM

Question: For `CCN1CCN(CCCOc2cc3nccc(Oc4ccc(NC(=O)NN5C(=O)CSC5c5c(F)cccc5F)cc4)c3cc2OC)CC1` (stereo not drawn), which IC50 is on record?
Answer: 220 nM

Question: With `CCN(CC)CCCOc1cc2nccc(Oc3ccc(C(=O)NN4C(=O)CSC4c4c(F)cccc4F)cc3)c2cc1OC` (stereo not drawn) as the compound, how does the IC50 read?
Answer: 680 nM

Question: Which IC50 does the source give for `CCN(CC)CCCOc1cc2nccc(Oc3ccc(CC(=O)NN4C(=O)CSC4c4c(F)cccc4F)cc3)c2cc1OC` (stereo not drawn) here?
Answer: 1600 nM

Question: Which IC50 does the source give for `CCN(CC)CCCOc1cc2nccc(Oc3ccc(NC(=O)NN4C(=O)CSC4c4c(F)cccc4F)cc3OC)c2cc1OC` (stereo not drawn) here?
Answer: 680 nM

system: HCT-116; assay: cells; conditions: Homo sapiens

Question: Which IC50 does the source give for `CCN(CC)CCCOc1cc2nccc(Oc3c(F)cc(NC(=O)NN4C(=O)CSC4c4c(F)cccc4F)cc3F)c2cc1OC` (stereo not drawn) here?
Answer: 440 nM

Question: Which IC50 does the source give for `CCN1CCN(CCCOc2cc3nccc(Oc4ccc(NC(=O)NN5C(=O)CSC5c5c(F)cccc5F)cc4)c3cc2OC)CC1` (stereo not drawn) here?
Answer: 110 nM

Question: With `CCN(CC)CCCOc1cc2nccc(Oc3ccc(C(=O)NN4C(=O)CSC4c4c(F)cccc4F)cc3)c2cc1OC` (stereo not drawn) as the compound, how does the IC50 read?
Answer: 3200 nM

Question: Which IC50 does the source give for `CCN(CC)CCCOc1cc2nccc(Oc3ccc(CC(=O)NN4C(=O)CSC4c4c(F)cccc4F)cc3)c2cc1OC` (stereo not drawn) here?
Answer: 7800 nM

Question: For `CCN(CC)CCCOc1cc2nccc(Oc3ccc(NC(=O)NN4C(=O)CSC4c4c(F)cccc4F)cc3OC)c2cc1OC` (stereo not drawn), which IC50 is on record?
Answer: 200 nM
